US20070173488A1, “Pyrazolothiazole Protein Kinase Modulators” (SGX Pharmaceuticals, Inc., priority 2005, published 2007)
pIC50: −log10 of the molar value.

molecular target: Met (Homo sapiens, UniProt P08581); experiment: MET Luminescence-based Enzyme Assay (Kinase-Glo); type: biochemical; design: Sf9 insect cell culture expressing the kinase domain of human Met; 6x Histidine tag (TEV-cleavable) (cleaved yes); made in house; host or cells: Sf9 insect cells
Text: Homogeneous luminescence-based inhibitor screening assays were developed for c-Abl, MET, AurA, and PDK1 kinases (among others). Each of these assays made use of an ATP depletion assay (Kinase-Glo™, Promega Corporation, Madison, Wis.) to quantitate kinase activity. The Kinase-Glo™ format uses a thermostable luciferase to generate luminescent signal from ATP remaining in solution following the kinase reaction. The luminescent signal is inversely correlated with the amount of kinase activity.
Dose response was analyzed using the equation: y=min+{(max−min)/(1 +10^[compound]-logIC50)}, where y is the observed initial slope, max=the slope in the absence of inhibitor, min=the slope at infinite inhibitor, and the IC50 is the [compound] that corresponds to ½ the total observed amplitude (Amplitude=max−min).
The cell pellets produced from half of a 12 L Sf9 insect cell culture expressing the kinase domain of human Met were resuspended in a buffer containing 50 mM Tris-HCl pH 7.7 and 250 mM NaCl, in a volume of approximately 40 ml per 1 L of original culture. One tablet of Roche Complete, EDTA-free protease inhibitor cocktail (Cat# 1873580) was added per 1 L of original culture. The suspension was stirred for 1 hour at 4° C. Debris was removed by centrifugation for 30 minutes at 39,800×g at 4° C. The supernatant was decanted into a 500 ml beaker and 10 ml of 50% slurry of Qiagen Ni-NTA Agarose (Cat# 30250) that had been pre-equilibrated in 50 mM Tris-HCl pH 7.8, […], 10% Glycerol, 10 mM Imidazole, and 10 mM Methionine, were added and stirred for 30 minutes at 4° C. The sample was then poured into a drip column at 4° C. and washed with 10 column volumes of 50 mM Tris-HCl pH 7.8, 500 mM NaCl, 10% Glycerol, 10 mM Imidazole, and 10 mM Methionine. The protein was eluted using a step gradient with two column volumes each of the same buffer containing 50 mM, 200 mM, and 500 mM Imidazole, sequentially. The 6× Histidine tag was cleaved overnight using 40 units of TEV protease (Invitrogen Cat# 10127017) per 1 mg of protein while dialyzing in 50 mM Tris-HCl pH 7.8, 500 mM NaCl, 10% Glycerol, 10 mM Imidazole, and 10 mM Methionine at 4° C. The 6× Histidine tag was removed by passing the sample over a Pharmacia 5 ml IMAC column (Cat# 17-0409-01) charged with Nickel and equilibrated in 50 mM Tris-HCl pH 7.8, 500 mM NaCl, 10% Glycerol, 10 mM Imidazole, and 10 mM Methionine. The cleaved protein bound to the Nickel column at a low affinity and was eluted with a step gradient. The step gradient was run with 15% and then 80% of the B-side (A-side=50 mM Tris-HCl pH 7.8, 500 mM NaCl, 10% Glycerol, 10 mM Imidazole, and 10 mM Methionine; B-side=50 mM Tris-HCl pH 7.8, 500 mM NaCl, 10% Glycerol, 500 mM Imidazole, and 10 mM Methionine) for 4 column volumes each. The Met protein eluted in the first step (15%), whereas the non-cleaved Met and the cleaved Histidine tag eluted in the 80% fractions. The 15% fractions were pooled after SDS-PAGE gel analysis confirmed the presence of cleaved Met; further purification was done by gel filtration chromatography on an Amersham Biosciences HiLoad 16/60 Superdex 200 prep grade (Cat# 17-1069-01) equilibrated in 50 mM Tris-HCl pH 8.5, 150 mM NaCl, ˜10% Glycerol and 5 mM DTT. The cleanest fractions were combined and concentrated to ˜10.4 mg/ml by centrifugation in an Amicon Ultra-15 10,000 Da MWCO centrifugal filter unit (Cat# UFC901024).
MET Luminescence-based Enzyme Assay
Materials: Poly Glu-Tyr (4:1) substrate (Sigma Cat# P-0275), ATP (Sigma Cat#A-3377, FW=551), HEPES buffer, pH 7.5, Bovine serum albumin (BSA) (Roche 92423420), MgCl2, Staurosporine (Streptomyces sp. Sigma Cat#85660-1MG), white Costar 384-well flat-bottom plate (VWR Cat#29444-088). MET kinase (see below), Kinase-Glo™ (Promega Cat#V6712).
Stock Solutions: 10 mg/ml poly Glu-Tyr in water, stored at −20° C.; 100 mM HEPES buffer, pH 7.5 (5 ml 1M stock+45 ml miliQH2O); 10 mM ATP (5.51 mg/ml in dH2O) stored at −20° C. […]

Chain of Met (P08581 1078-1345 limits assumed): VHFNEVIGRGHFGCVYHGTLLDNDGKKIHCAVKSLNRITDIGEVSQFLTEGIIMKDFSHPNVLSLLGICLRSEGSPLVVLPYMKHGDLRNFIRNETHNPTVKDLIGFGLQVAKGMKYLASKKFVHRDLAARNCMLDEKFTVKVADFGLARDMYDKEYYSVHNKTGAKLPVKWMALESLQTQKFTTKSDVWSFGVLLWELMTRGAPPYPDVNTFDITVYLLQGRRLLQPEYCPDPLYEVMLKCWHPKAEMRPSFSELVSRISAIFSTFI

pIC50 | SMILES
< 5.00 | O=C(Nc1nc2[nH]nc(-n3cncc3-c3ccccn3)c2s1)C1CC1 [Cyclopropanecarboxylic acid [3-(5-pyridin-2-yl-imidazol-1-yl)-1H-pyrazolo[3,4-d]thiazol-5-yl]-amide]
5.00 to 6.00 | O=C(Nc1nc2[nH]nc(-n3cncc3-c3c(Cl)cccc3Cl)c2s1)C1CC1 [Cyclopropanecarboxylic acid {3-[5-(2,6-dichloro-phenyl)-imidazol-1-yl]-1H-pyrazolo[3,4-d]thiazol-5-yl}-amide]
6.00 to 7.00 | NC(=O)COc1ccc(-c2cncn2-c2n[nH]c3nc(NC(=O)C4CC4)sc23)c(Cl)c1 [Cyclopropanecarboxylic acid {3-[5-(4-carbamoylmethoxy-2-chloro-phenyl)-imidazol-1-yl]-1H-pyrazolo[3,4-d]thiazol-5-yl}-amide]
< 5.00 | O=C(Nc1cc[nH]n1)Nc1nc2[nH]nc(-n3cncc3-c3ccccc3Cl)c2s1 [1-{3-[5-(2-Chloro-phenyl)-imidazol-1-yl]-1H-pyrazolo[3,4-d]thiazol-5-yl}-3-(1H-pyrazol-3-yl)-urea]
< 5.00 | O=C(Nc1nc2[nH]nc(-n3cncc3-c3ccccc3)c2s1)C1CC1 [Cyclopropanecarboxylic acid [3-(5-phenyl-imidazol-1-yl)-1H-pyrazolo[3,4-d]thiazol-5-yl]-amide]
< 5.00 | CS(=O)(=O)c1ccc(F)cc1-c1cncn1-c1n[nH]c2nc(NC(=O)C3CC3)sc12 [Cyclopropanecarboxylic acid {3-[5-(5-fluoro-2-methanesulfonyl-phenyl)-imidazol-1-yl]-1H-pyrazolo[3,4-d]thiazol-5-yl}-amide]
5.00 to 6.00 | O=C(Nc1nc2[nH]nc(-n3cncc3-c3cccc(F)c3F)c2s1)C1CC1 [Cyclopropanecarboxylic acid {3-[5-(2,3-difluoro-phenyl)-imidazol-1-yl]-1H-pyrazolo[3,4-d]thiazol-5-yl}-amide]
6.00 to 7.00 | COc1ccc2nc(Cl)c(-c3cncn3-c3n[nH]c4nc(NC(=O)C5CC5)sc34)cc2c1 [Cyclopropanecarboxylic acid {3-[5-(2-chloro-6-methoxy-quinolin-3-yl)-imidazol-1-yl]-1H-pyrazolo[3,4-d]thiazol-5-yl}-amide]
5.00 to 6.00 | O=C(Nc1nc2[nH]nc(-n3cncc3-c3cc(Cl)cc(Cl)c3Cl)c2s1)C1CC1 [Cyclopropanecarboxylic acid {3-[5-(2,3,5-trichloro-phenyl)-imidazol-1-yl]-1H-pyrazolo[3,4-d]thiazol-5-yl}-amide]
6.00 to 7.00 | O=C(Nc1nc2[nH]nc(-n3cncc3-c3ccccc3Cl)c2s1)C1CC1 [Cyclopropanecarboxylic acid {3-[5-(2-chloro-phenyl)-imidazol-1-yl]-1H-pyrazolo[3,4-d]thiazol-5-yl}-amide]
5.00 to 6.00 | O=C(Nc1nc2[nH]nc(-n3cncc3-c3c(Cl)ccc(Cl)c3Cl)c2s1)C1CC1 [Cyclopropanecarboxylic acid {3-[5-(2,3,6-trichloro-phenyl)-imidazol-1-yl]-1H-pyrazolo[3,4-d]thiazol-5-yl}-amide]
5.00 to 6.00 | O=C(Nc1nc2[nH]nc(-n3cncc3-c3ccc4ccccc4c3)c2s1)C1CC1 [Cyclopropanecarboxylic acid [3-(5-naphthalen-2-yl-imidazol-1-yl)-1H-pyrazolo[3,4-d]thiazol-5-yl]-amide]
